Laboratory results published in BindingDB's records for doi:10.1021/jm061152t (Abbott Laboratories, 2007).
Several values for one entry are separate records, joined by “and”; a condition that tells them apart may be missing. Equal entries are not always repeated.

Assays:
[1] = target: Apoptosis regulator Bcl-2 (Homo sapiens, UniProt P10415); test: Fluorescence Polarization Assay and FL5.12 Cellular Assay
Method: (§1) The binding affinities (Ki) of compounds were determined using fluorescence polarization assays (FPA) that measure their ability to competitively displace a Bad-derived peptide from Bcl-xL. Compound efficacy (EC50) in a cellular context was evaluated by testing their ability to reverse the protection from cytokine withdrawal afforded by overexpression of Bcl-xL in the IL-3 dependent murine pro-B cell line FL5.12.

Bcl-2-like protein 1 [2] = target: T1, Bcl-2-like protein 1 (Homo sapiens, UniProt Q07817); test: Fluorescence Polarization (FP) Assay and FL5.12 Cellular Assay; conditions: pH 7.4; 25 °C
Method: as §1, with “Bcl-xL. […]” for “Bcl-xL.”

Bcl-2-like protein 1 [3] = target: T1, Bcl-2-like protein 1; test: Fluorescence Polarization Assay and FL5.12 Cellular Assay
Method: as §1

[4] = The binding affinities (Ki) of compounds were determined using fluorescence polarization assays (FPA) that measure their ability to competitively displace a Bad-derived peptide from Bcl-xL. Compound efficacy (EC50) in a cellular context was evaluated by testing their ability to reverse the protection from cytokine w
[5] = The binding affinities (Ki) of compounds were determined using fluorescence polarization assays (FPA) that measure their ability to competitively displace a Bad-derived peptide from Bcl-xL. IC50 values were binding affinities measured in the presence of 10% human serum. Compound efficacy (EC50) in a cellular co; conditions: pH 7.4

T1 sequence (Q07817 whole entry): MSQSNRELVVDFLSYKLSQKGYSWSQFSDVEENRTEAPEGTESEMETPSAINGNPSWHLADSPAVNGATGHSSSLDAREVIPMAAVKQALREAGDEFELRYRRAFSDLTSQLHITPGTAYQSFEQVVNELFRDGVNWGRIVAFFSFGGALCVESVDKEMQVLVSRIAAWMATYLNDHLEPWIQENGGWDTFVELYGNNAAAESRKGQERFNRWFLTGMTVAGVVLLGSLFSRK
Sequence of Apoptosis regulator Bcl-2 (P10415 whole entry): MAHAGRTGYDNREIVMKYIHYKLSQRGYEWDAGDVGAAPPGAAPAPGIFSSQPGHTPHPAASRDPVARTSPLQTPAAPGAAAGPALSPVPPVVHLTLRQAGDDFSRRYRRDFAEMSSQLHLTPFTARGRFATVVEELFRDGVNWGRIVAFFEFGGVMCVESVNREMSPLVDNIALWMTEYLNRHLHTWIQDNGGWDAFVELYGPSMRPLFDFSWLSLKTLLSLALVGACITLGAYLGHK

SMILES	EC50 [4]	EC50 [5]	other results
CCCCC1(OC)CCN(c2ccc(C(=O)NS(=O)(=O)c3ccc(N[C@H](CCN(C)C)CSc4ccccc4)c([N+](=O)[O-])c3)cc2)CC1 [4-(4-butyl-4-methoxypiperidin-1-yl)-N-[(4-{[(2R)-4-(dimethylamino)-1-(phenylsulfanyl)butan-2-yl]amino}-3-nitrobenzene)sulfonyl]benzamide]			EC50 [1]: 3000 nM; Ki [1]: 20 nM; EC50 (Bcl-2-like protein 1 [2]): 8000 nM; IC50 (Bcl-2-like protein 1 [2]): 312 nM; Ki (Bcl-2-like protein 1 [2]): 1.3 nM
CN(C)CC[C@H](CSc1ccccc1)Nc1ccc(S(=O)(=O)NC(=O)c2ccc(N3CCN(Cc4ccccc4-c4ccc(S(C)(=O)=O)cc4)CC3)cc2)cc1[N+](=O)[O-] [N-[(4-{[(2R)-4-(dimethylamino)-1-(phenylsulfanyl)butan-2-yl]amino}-3-nitrobenzene)sulfonyl]-4-(4-{[2-(4-methanesulfonylphenyl)phenyl]methyl}piperazin-1-yl)benzamide]	460 nM and 530 nM		Ki (Bcl-2-like protein 1 [3]): 9.1 nM
COC1(Cc2ccccc2C)CCN(c2ccc(C(=O)NS(=O)(=O)c3ccc(N[C@H](CCN(C)C)CSc4ccccc4)c([N+](=O)[O-])c3)cc2)CC1 [N-[(4-{[(2R)-4-(dimethylamino)-1-(phenylsulfanyl)butan-2-yl]amino}-3-nitrobenzene)sulfonyl]-4-{4-methoxy-4-[(2-methylphenyl)methyl]piperidin-1-yl}benzamide]	200 nM	150 nM	
COC1(Cc2ccccc2-c2ccccc2)CCN(c2ccc(C(=O)NS(=O)(=O)c3ccc(N[C@H](CCN(C)C)CSc4ccccc4)c([N+](=O)[O-])c3)cc2)CC1 [N-[(4-{[(2R)-4-(dimethylamino)-1-(phenylsulfanyl)butan-2-yl]amino}-3-nitrobenzene)sulfonyl]-4-{4-methoxy-4-[(2-phenylphenyl)methyl]piperidin-1-yl}benzamide]	20 nM	35 nM	

The remaining compounds from weak to strong by EC50 [4], led by results:

EC50 [4]	EC50 [5]	SMILES	other results
1100 nM	600 nM	COC1(Cc2ccc(-c3ccccc3)cc2)CCN(c2ccc(C(=O)NS(=O)(=O)c3ccc(N[C@H](CCN(C)C)CSc4ccccc4)c([N+](=O)[O-])c3)cc2)CC1 [N-[(4-{[(2R)-4-(dimethylamino)-1-(phenylsulfanyl)butan-2-yl]amino}-3-nitrobenzene)sulfonyl]-4-{4-methoxy-4-[(4-phenylphenyl)methyl]piperidin-1-yl}benzamide]	
350 nM	250 nM	CN(C)CC[C@H](CSc1ccccc1)Nc1ccc(S(=O)(=O)NC(=O)c2ccc(N3CCC(=Cc4ccccc4F)CC3)cc2)cc1[N+](=O)[O-] [N-[(4-{[(2R)-4-(dimethylamino)-1-(phenylsulfanyl)butan-2-yl]amino}-3-nitrobenzene)sulfonyl]-4-{4-[(2-fluorophenyl)methylidene]piperidin-1-yl}benzamide]	
250 nM	300 nM	COc1ccccc1C=C1CCN(c2ccc(C(=O)NS(=O)(=O)c3ccc(N[C@H](CCN(C)C)CSc4ccccc4)c([N+](=O)[O-])c3)cc2)CC1 [N-[(4-{[(2R)-4-(dimethylamino)-1-(phenylsulfanyl)butan-2-yl]amino}-3-nitrobenzene)sulfonyl]-4-{4-[(2-methoxyphenyl)methylidene]piperidin-1-yl}benzamide]	
250 nM	150 nM	COc1ccccc1CC1(OC)CCN(c2ccc(C(=O)NS(=O)(=O)c3ccc(N[C@H](CCN(C)C)CSc4ccccc4)c([N+](=O)[O-])c3)cc2)CC1 [N-[(4-{[(2R)-4-(dimethylamino)-1-(phenylsulfanyl)butan-2-yl]amino}-3-nitrobenzene)sulfonyl]-4-{4-methoxy-4-[(2-methoxyphenyl)methyl]piperidin-1-yl}benzamide]	
